Measurements: patent publication US10485236B2, “Triazole derivatives, intermediates thereof and their use as fungicides” (Bayer CropScience Aktiengesellschaft, priority 2015, dated 2019)
Marks after values point to notes of the source that are not given here.

Assay: Measurement of LogP values by HPLC on reversed phase columns (EEC directive 79/831 Annex V.A8)
Format: physicochemical
Procedure: [table] If more than one Log P value is available within the same method, all the values are given and separated by “+”. Calibration was done with straight-chain alkan2-ones (with 3 to 16 carbon atoms) with known Log P values (measurement of Log P values using retention times with linear interpolation between successive alkanones). Lambda-max-values were determined using UV-spectra from 200 nm to 400 nm and the peak values of the chromatographic signals.

Compound	LogP
CC(O)c1ccc(Oc2ccc(C(O)Cn3cncn3)c(Cl)n2)cc1 (mixture of isomers) [I.24]	1.48^[a]
CC(O)(Cn1cncn1)c1cnc(Oc2ccc(Cl)cc2)cc1Cl (racemic) [I.08]	2.50^[a]
CC(O)(Cn1cncn1)c1ccc(Oc2ccc(Cl)cc2)nc1Cl (racemic) [I.09]	2.66^[a]
OC(Cn1cncn1)c1ccc(Oc2ccc(Cl)c(Cl)c2)nc1Cl (racemic) [I.10]	2.80^[a]
OC(Cn1cncn1)c1ccc(Oc2ccc(OC(F)(F)F)c(Cl)c2)nc1Cl (racemic) [I.11]	3.11^[a]
OC(Cn1cncn1)c1ccc(Oc2ccccc2)nc1Cl (racemic) [I.13]	1.98^[a]
Cc1cc(Cl)ccc1Oc1ccc(C(O)Cn2cncn2)c(Cl)n1 (racemic) [I.15]	2.75^[a]
OC(Cn1cncn1)c1ccc(Oc2ccc(F)cc2F)nc1Cl (racemic) [I.18]	2.18^[a]
OC(Cn1cncn1)c1ccc(Oc2ccccc2F)nc1Cl (racemic) [I.19]	2.08^[a]
OC(Cn1cncn1)c1ccc(Oc2cc(F)c(F)c(F)c2)nc1Cl (racemic) [I.20]	1.65^[a]
OC(Cn1cncn1)c1cnc(Oc2ccccc2)cc1Cl (racemic) [I.21]	1.92^[a]
OC(Cn1cncn1)c1ncc(Oc2ccccc2)cc1Cl (racemic) [I.22]	2.01^[a]
OC(Cn1cncn1)c1ccc(Oc2ccc(Cl)cc2Cl)nc1Cl (racemic) [I.23]	2.75^[a]
OC(Cn1cncn1)c1ccc(Oc2ccc(Cl)cc2)nc1C(F)F (racemic) [I.25]	2.44^[a]
COc1ccc(Oc2ccc(C(O)Cn3cncn3)c(Cl)n2)c(Cl)c1 (racemic) [I.30]	2.32^[a]
OC(Cn1cncn1)c1ccc(Oc2ccc(S(F)(F)(F)(F)F)cc2)nc1Cl (racemic) [I.34]	2.90^[a]
CC(O)(Cn1cncn1)c1ccc(Oc2ccc(Br)cc2)nc1C(F)(F)F (racemic) [I.59]	2.94^[a]
OC(Cn1cncn1)(c1ccc(Oc2ccc(Br)cc2)nc1C(F)(F)F)C1CC1 (racemic) [I.81]	3.70^[a]
OC(Cn1cncn1)(c1ccc(Oc2ccc(Br)cc2)nc1C(F)(F)F)C1CC1 (single isomer, unassigned) [Example 1.84]	3.41^[a]
CC(O)(Cn1cncn1)c1ccc(Oc2ccc(Cl)cc2)nc1Cl (single isomer, unassigned) [I.51]	2.62^[a]
CC(O)(Cn1cncn1)c1ccc(Oc2ccc(Cl)cc2)nc1Cl (single isomer, unassigned) [I.52]	2.62^[a]
CC(O)(Cn1cncn1)c1cnc(Oc2ccc(Cl)cc2)cc1Cl (single isomer, unassigned) [I.53]	2.53^[a]
CC(O)(Cn1cncn1)c1cnc(Oc2ccc(Cl)cc2)cc1Cl (single isomer, unassigned) [I.54]	2.53^[a]
OC(Cn1cncn1)c1ccc(Oc2ccc(C(F)(F)F)cc2)nc1C(F)(F)F (single isomer, unassigned) [I.72]	2.86^[a]
OC(Cn1cncn1)c1cnc(Oc2ccc(S(F)(F)(F)(F)F)cc2)cc1C(F)(F)F (single isomer, unassigned) [I.83]	3.11^[a]
OC(Cn1cncn1)c1cnc(Oc2ccc(S(F)(F)(F)(F)F)cc2)cc1C(F)(F)F (single isomer, unassigned) [I.86]	3.11^[a]
OC(Cn1cncn1)c1cnc(Oc2ccc(C(F)(F)F)cc2)cc1C(F)(F)F (single isomer, unassigned) [I.92]	2.86^[a]
OC(Cn1cncn1)(c1ccc(Oc2ccc(Br)cc2)nc1C(F)(F)F)C1CC1 (single isomer, unassigned) [I.99]	3.41^[a]

Compound	LogP
CC(O)(Cn1cncn1)c1ccc(Oc2ccc(Br)cc2)nc1C(F)(F)F (single isomer, unassigned) [I.101]	2.94^[a]
CC(O)(Cn1cncn1)c1ccc(Oc2ccc(Br)cc2)nc1C(F)(F)F (single isomer, unassigned) [I.102]	2.94^[a]
CC(O)(Cn1cncn1)c1cnc(Oc2ccc(S(F)(F)(F)(F)F)cc2)cc1C(F)(F)F (stereo not shown) [I.37]	3.33^[a]
OC(Cn1cncn1)c1ccc(Oc2ccc(C(F)F)cc2)nc1Cl (stereo not shown) [I.38]	2.17^[a]
OC(Cn1cncn1)c1ccc(Oc2ccc(Br)cc2)nc1C(F)(F)F (stereo not shown) [I.40]	2.82^[a]
OC(Cn1cncn1)c1ccc(Oc2ccc(Cl)cc2)nc1F (stereo not shown) [I.41]	2.23^[a]
OC(Cn1cncn1)c1cnc(Oc2ccc(OC(F)(F)F)cc2)cc1C(F)(F)F (stereo not shown) [I.43]	3.00^[a]
OC(Cn1cncn1)c1cnc(Oc2ccc(Br)cc2)cc1C(F)(F)F (stereo not shown) [I.48]	2.75^[a]
CC(O)(Cn1cncn1)c1cnc(Oc2ccc(C(F)(F)F)cc2)cc1C(F)(F)F (stereo not shown) [I.50]	3.11^[a]
OC(Cn1cncn1)c1cnc(Oc2ccc(C(F)F)cc2)cc1C(F)(F)F (stereo not shown) [I.55]	2.55^[a]
OC(Cn1cncn1)c1cnc(Oc2ccc(Cl)cc2F)cc1C(F)(F)F (stereo not shown) [I.57]	2.86^[a]
CC(O)(Cn1cncn1)c1cnc(Oc2ccc(Cl)cc2F)cc1C(F)(F)F (stereo not shown) [I.58]	3.02^[a]
OC(Cn1cncn1)c1ccc(Oc2ccc(S(F)(F)(F)(F)F)cc2)nc1C(F)(F)F (stereo not shown) [I.60]	3.08^[a]
OC(Cn1cncn1)c1ccc(Oc2ccc(C(F)(F)F)cc2)nc1C(F)(F)F (stereo not shown) [I.61]	2.84^[a]
OC(Cn1cncn1)c1cnc(Oc2ccc(Br)cc2)cc1C(F)F (stereo not shown) [I.63]	2.59^[a]
OC(Cn1cncn1)c1cnc(Oc2ccc(Cl)cc2)cc1Cl (stereo not shown) [I.68]	2.48^[a]
C=CC(O)(Cn1cncn1)c1cnc(Oc2ccc(C(F)(F)F)cc2)cc1C(F)(F)F (stereo not shown) [I.69]	3.33^[a]
OC(Cn1cncn1)c1ccc(Oc2ccc(Cl)cc2F)nc1C(F)(F)F (stereo not shown) [I.70]	2.78^[a]
OC(Cn1cncn1)c1ccc(Oc2ccc(Br)cc2)nc1C(F)F (stereo not shown) [I.73]	2.50^[a]
OC(Cn1cncn1)c1ccc(Oc2ccc(C(F)F)cc2)nc1C(F)(F)F (stereo not shown) [I.74]	2.49^[a]
CCC(O)(Cn1cncn1)c1cnc(Oc2ccc(C(F)(F)F)cc2)cc1C(F)(F)F (stereo not shown) [I.76]	3.52^[a]
OC(Cn1cncn1)c1ccc(Oc2ccc(OC(F)(F)F)cc2)nc1C(F)(F)F (stereo not shown) [I.79]	2.89^[a]
OC(Cn1cncn1)(c1ccc(Oc2ccc(C(F)(F)F)cc2)nc1C(F)(F)F)C1CC1 (stereo not shown) [I.87]	3.57^[a]
OC(Cn1cncn1)c1cnc(Oc2ccc(C(F)(F)F)cc2)cc1Cl (stereo not shown) [I.88]	2.64^[a]
OC(Cn1cncn1)c1ccc(Oc2ccc(Cl)cc2F)nc1C(F)(F)F (stereo not shown) [I.90]	2.88^[a]
OC(Cn1cncn1)(c1ccc(Oc2ccc(C(F)F)cc2)nc1C(F)(F)F)C1CC1 (stereo not shown) [I.93]	3.13^[a]
OC(Cn1cncn1)c1cnc(Oc2ccc(Cl)cc2)cc1C(F)F (stereo not shown) [I.94]	2.13^[a]

The next lines start with the values.

LogP	Compound
2.73^[a]	OC(Cn1cncn1)c1ccc(Oc2ccc(OC(F)(F)F)cc2)nc1Cl (racemic) [I.12]
2.08^[a]	OC(Cn1cncn1)c1ccc(Oc2ccc(F)cc2)nc1Cl (racemic) [I.17]
2.92^[a]	OC(Cn1cncn1)c1ccc(Oc2ccc(Cl)cc2)nc1OC(F)(F)F (racemic) [I.26]
2.28^[a]	CC(O)(Cn1cncn1)c1ccc(Oc2ccc(F)cc2)nc1Cl (racemic) [I.27]
2.94^[a]	Cc1cc(Cl)ccc1Oc1ccc(C(C)(O)Cn2cncn2)c(Cl)n1 (racemic) [I.28]
2.56^[a]	COc1ccc(Oc2ccc(C(C)(O)Cn3cncn3)c(Cl)n2)c(Cl)c1 (racemic) [I.31]
3.09^[a]	CC(O)(Cn1cncn1)c1ccc(Oc2ccc(Cl)c(Cl)c2)nc1Cl (racemic) [I.32]
3.29^[a]	CC(O)(Cn1cncn1)c1ccc(Oc2ccc(Cl)cc2)nc1OC(F)(F)F (racemic) [I.33]
2.93^[a]	CC(O)(Cn1cncn1)c1cnc(Oc2ccc(Cl)cc2)cc1C(F)(F)F (single isomer, unassigned) [I.46]
2.46^[a]	CC(O)(Cn1cncn1)c1ccc(Oc2ccc(Cl)cc2)nc1F (stereo not shown) [I.42]
3.23^[a]	CC(O)(Cn1cncn1)c1cnc(Oc2ccc(OC(F)(F)F)cc2)cc1C(F)(F)F (stereo not shown) [I.44]
2.96^[a]	CC(O)(Cn1cncn1)c1cnc(Oc2ccc(Br)cc2)cc1C(F)(F)F (stereo not shown) [I.49]
2.73^[a]	CC(O)(Cn1cncn1)c1cnc(Oc2ccc(C(F)F)cc2)cc1C(F)(F)F (stereo not shown) [I.56]
3.25^[a]	CC(O)(Cn1cncn1)c1ccc(Oc2ccc(S(F)(F)(F)(F)F)cc2)nc1C(F)(F)F (stereo not shown) [I.62]
2.68^[a]	CC(O)(Cn1cncn1)c1cnc(Oc2ccc(Cl)cc2)cc1C(F)F (stereo not shown) [I.64]
3.04^[a]	CC(O)(Cn1cncn1)c1ccc(Oc2ccc(C(F)(F)F)cc2)nc1C(F)(F)F (stereo not shown) [I.65]
2.80^[a]	CC(O)(Cn1cncn1)c1ccc(Oc2ccc(Cl)cc2F)nc1C(F)(F)F (stereo not shown) [I.66]
2.68^[a]	CC(O)(Cn1cncn1)c1ccc(Oc2ccc(Cl)cc2)nc1C(F)(F)F (stereo not shown) [I.67]
3.35^[a]	OC(Cn1cncn1)(c1ccc(Oc2ccc(Cl)cc2)nc1C(F)(F)F)C1CC1 (stereo not shown) [I.71]
3.35^[a]	CC(C)c1ccc(Oc2ccc(C(C)(O)Cn3cncn3)c(C(F)(F)F)n2)cc1 (stereo not shown) [I.75]
3.13^[a]	CC(O)(Cn1cncn1)c1ccc(Oc2ccc(F)cc2)nc1Oc1ccc(F)cc1 (stereo not shown) [I.77]
2.88^[a]	CC(O)(Cn1cncn1)c1cnc(Oc2ccc(C(F)(F)F)cc2)cc1Cl (stereo not shown) [I.78]
3.32^[a]	OC(Cn1cncn1)(c1ccc(Oc2ccc(Cl)cc2)nc1C(F)(F)F)C1CC1 (stereo not shown) [I.80]
2.78^[a]	CC(O)(Cn1cncn1)c1cnc(Oc2ccc(Br)cc2)cc1C(F)F (stereo not shown) [I.82]
3.48^[a]	OC(Cn1cncn1)(c1ccc(Oc2ccc(Br)cc2)nc1C(F)(F)F)C(F)(F)F (stereo not shown) [I.85]
3.15^[a]	CC(O)(Cn1cncn1)c1ccc(Oc2ccc(Cl)cc2F)nc1C(F)(F)F (stereo not shown) [I.89]
2.98^[a]	CC(O)(Cn1cncn1)c1ccc(Oc2ccc(OC(F)(F)F)cc2)nc1C(F)(F)F (stereo not shown) [I.95]
